molecular target: T1, mushroom tyrosinase (Agaricus bisporus, UniProt C7FF04); test: Mushroom tyrosinase inhibition assay (L-DOPA, dopachrome at 492 nm); assay type: biochemical; parameters: purchased Sigma Chemical Co. USA; settings: Con: as-synthesized, before plasma treatment; cell-free; mean ± SD; read-out: Tyrosinase inhibitory activity IC50 (converted)
Method: To determine the action of ED and PAED, we checked the mushroom tyrosinase inhibitory activity in a cell-free environment. […] Moreover, after plasma treatment for different time intervals, we observed that inhibition activity of 4a, 4b, 4d and 6a was improved more as compared to without treatment. […] However, we observed the highest relative improvement in IC50 value of compound 4b among all ED compounds at 10 min plasma treatment. […] Therefore, we used the 4b and 6a compounds for further investigations, based on the decrease in IC50 value to a global minimum of the experiment after plasma treatment.
Target sequence in this assay (C7FF04 1-392): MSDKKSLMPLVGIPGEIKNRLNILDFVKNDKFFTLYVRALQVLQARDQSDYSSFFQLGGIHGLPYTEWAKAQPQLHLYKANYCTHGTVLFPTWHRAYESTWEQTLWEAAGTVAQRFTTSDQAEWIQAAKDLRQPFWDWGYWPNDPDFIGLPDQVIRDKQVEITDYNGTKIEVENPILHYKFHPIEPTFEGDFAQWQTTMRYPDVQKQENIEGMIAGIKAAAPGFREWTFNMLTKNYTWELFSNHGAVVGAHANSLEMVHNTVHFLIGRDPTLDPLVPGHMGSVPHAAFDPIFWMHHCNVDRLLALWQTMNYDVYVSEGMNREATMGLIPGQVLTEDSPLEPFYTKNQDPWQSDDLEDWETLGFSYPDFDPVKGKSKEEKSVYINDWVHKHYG
The mushroom tyrosinase was used for in vitro bioassays as described previously with some modifications. Briefly, 140 μl of phosphate buffer (20 mM, pH 6.8), 20 μl of mushroom tyrosinase (30 U/ml), and 20 μl of the inhibitor solution were placed in the wells of a 96-well plate. After pre-incubation for 10 min at room temperature, 20 μl of L-DOPA (3,4-dihydroxyphenylalanine) (0.85 mM) was added and the plate was further incubated at 25 °C for 20 min. Subsequently the absorbance of dopachrome was measured at 492 nm using a micro plate reader (OPTI Max, Tunable). Kojic acid was used as a reference inhibitor. The extent of inhibition by the test compounds was expressed as the […] necessary to achieve 50% inhibition (IC50). Each concentration was analyzed in three independent experiments run in triplicate. The IC50 values were determined by the data analysis and graphing software, Origin.

Row | Structure (SMILES) | IC50 [µM]
1 | C=CCc1ccc(OC(=O)COC(=O)c2ccc(O)cc2O)c(OC)c1 [4c, 2-[2-methoxy-4-(prop-2-en-1-yl)phenoxy]-2-oxoethyl 2,4-dihydroxybenzoate] | 41.9
2 | C=CCc1ccc(OC(=O)COC(=O)c2cccc(O)c2)c(OC)c1 [4a, 2-[2-methoxy-4-(prop-2-en-1-yl)phenoxy]-2-oxoethyl 3-hydroxybenzoate] | 73

same assay, conditions: compound after 3 min N2 APPJ plasma treatment; mean ± SD; read-out: Tyrosinase inhibitory activity IC50 (converted)

Row | Structure (SMILES) | IC50 [µM]
3 | C=CCc1ccc(OC(=O)COC(=O)c2ccc(O)cc2O)c(OC)c1 [4c, 2-[2-methoxy-4-(prop-2-en-1-yl)phenoxy]-2-oxoethyl 2,4-dihydroxybenzoate] | 53
4 | C=CCc1ccc(OC(=O)COC(=O)c2cccc(O)c2)c(OC)c1 [4a, 2-[2-methoxy-4-(prop-2-en-1-yl)phenoxy]-2-oxoethyl 3-hydroxybenzoate] | 70.1

same assay, conditions: compound after 5 min N2 APPJ plasma treatment; mean ± SD; read-out: Tyrosinase inhibitory activity IC50 (converted)

Row | Structure (SMILES) | IC50 [µM]
5 | C=CCc1ccc(OC(=O)COC(=O)c2ccc(O)cc2O)c(OC)c1 [4c, 2-[2-methoxy-4-(prop-2-en-1-yl)phenoxy]-2-oxoethyl 2,4-dihydroxybenzoate] | 67
6 | C=CCc1ccc(OC(=O)COC(=O)c2cccc(O)c2)c(OC)c1 [4a, 2-[2-methoxy-4-(prop-2-en-1-yl)phenoxy]-2-oxoethyl 3-hydroxybenzoate] | 58.4

same assay, conditions: compound after 10 min N2 APPJ plasma treatment; mean ± SD; read-out: Tyrosinase inhibitory activity IC50 (converted)

Row | Structure (SMILES) | IC50 [µM]
7 | C=CCc1ccc(OC(=O)COC(=O)c2ccc(O)cc2O)c(OC)c1 [4c, 2-[2-methoxy-4-(prop-2-en-1-yl)phenoxy]-2-oxoethyl 2,4-dihydroxybenzoate] | 80.9
8 | C=CCc1ccc(OC(=O)COC(=O)c2cccc(O)c2)c(OC)c1 [4a, 2-[2-methoxy-4-(prop-2-en-1-yl)phenoxy]-2-oxoethyl 3-hydroxybenzoate] | 49.7

test system: not given; test: not given; settings: not given

Row | Structure (SMILES) | melting point [°C]
9 | C=CCc1ccc(OC(=O)COC(=O)c2ccc(O)cc2O)c(OC)c1 [4c, 2-[2-methoxy-4-(prop-2-en-1-yl)phenoxy]-2-oxoethyl 2,4-dihydroxybenzoate] | 99 to 101
10 | C=CCc1ccc(OC(=O)COC(=O)c2cccc(O)c2)c(OC)c1 [4a, 2-[2-methoxy-4-(prop-2-en-1-yl)phenoxy]-2-oxoethyl 3-hydroxybenzoate] | 70 to 72

test system: B16F10 cells; test: Intracellular melanin content measurement; assay type: cell-based, murine; settings: as-synthesized ED; no α-MSH; concentration not given
Method: Melanoma (1.5 × 10^5) cells were seeded in cell culture plates and allowed to attach for 24 hr. Then each eugenol derivative was added and tested separately for melanin activation after 24 hr of incubation. After incubation, cells were detached using trypsin/EDTA and centrifuged at 1000 rpm for 5 min to collect the cell pellets. The cell pellets were solubilized in 1N NaOH at 60 °C for 1 hr. The melanin content was measured spectrophotometrically at 405 nm wavelength using a microplate reader (BioTek, synergy HT)[56]. […] Plasma-treated and non-plasma-treated ED (4b and 6a) were added to the cells, pre-incubated with or without α-MSH (100 nM) for a further 24 hr and melanin content was assayed as described above. Kojic acid can inhibit and α-MSH can stimulate the melanin in the cells, therefore we used them as negative and positive controls.

Row | Structure (SMILES) | melanin, % of control (normalized to 100%) [%]
11 | C=CCc1ccc(OC(=O)COC(=O)c2ccc(O)cc2O)c(OC)c1 [4c, 2-[2-methoxy-4-(prop-2-en-1-yl)phenoxy]-2-oxoethyl 2,4-dihydroxybenzoate] | 117
12 | C=CCc1ccc(OC(=O)COC(=O)c2cccc(O)c2)c(OC)c1 [4a, 2-[2-methoxy-4-(prop-2-en-1-yl)phenoxy]-2-oxoethyl 3-hydroxybenzoate] | 116

molecular target: T1, mushroom tyrosinase; test: Circular dichroism analysis of the secondary structure of mushroom tyrosinase; settings: tyrosinase + 10 min plasma-treated compound, 0.1 mM; enzyme alone 16
Method: The structural changes in tyrosinase after incubation with ED and PAED were plotted in Fig. 5. […] We observed that the control tyrosinase enzyme has 16% α-helix, 33% β-sheets, 7% turn, and 44% random coil. After the interaction with 4a, the amount of α-helix changed to 15% and β-sheets changed to 35%. On the other hand, after the plasma treatment of 4a the amount of α-helix changed to 17% and β-sheets changed to 31%. While, after interacting with 4b, the amount of α-helix is 16.0%, β-sheets 29%, turn 10%, and random coil is 45.0%. However, plasma-activated 4b interacts differently with tyrosinase enzyme, showing 16% α-helix, 33% β-sheets, 6% turn, and 45% random coil. When 6a ED interacted with tyrosinase enzyme, we observed 20% α-helix, 25% β-sheets, 11.0% turn, and 44% random coil. However, 6a PAED interacts with tyrosinase enzyme, the α-helix changed to 19%, β-sheets 28%, turn 9%, and random coil 44%. […] To obtain further detail on the interaction of the ED with tyrosinase enzyme, we studied the molecular docking. For the CD spectroscopic studies[65][66][67] a J-815 spectrophotometer (Jasco, Japan) was used, equipped with a Peltier system that controlled the temperature. (1S)-(+)-10-camphorsulfonic acid (Aldrich, Milwaukee, WI) with a molar extinction coefficient of 34.5 M/cm at 285 nm and a 2.36 M/cm molar ellipticity (θ) at 295 nm was used for the CD calibrations. The samples were pre-equilibrated at the desired temperature for 15 min, and the scan speed was fixed for adaptative sampling (error F 0.01) with a response time of 1 sec and a 1 nm bandwidth. The secondary structure of the mushroom tyrosinase was monitored by using a 1.0 cm path length cuvette. The mushroom tyrosinase (0.2 mg/ml) was prepared in phosphate buffer (20 mM) at pH 6.8 for CD analysis. We used the 0.1 mM concentration of all derivatives in 1 ml buffer solution, with or without 10 min plasma treatment. All spectra were collected in triplicate from 200 to 250 nm and the background was corrected against the buffer (blank). The percentages of secondary structures of proteins were calculated using inbuilt Jasco software.
Target sequence in this assay (C7FF04 2-392): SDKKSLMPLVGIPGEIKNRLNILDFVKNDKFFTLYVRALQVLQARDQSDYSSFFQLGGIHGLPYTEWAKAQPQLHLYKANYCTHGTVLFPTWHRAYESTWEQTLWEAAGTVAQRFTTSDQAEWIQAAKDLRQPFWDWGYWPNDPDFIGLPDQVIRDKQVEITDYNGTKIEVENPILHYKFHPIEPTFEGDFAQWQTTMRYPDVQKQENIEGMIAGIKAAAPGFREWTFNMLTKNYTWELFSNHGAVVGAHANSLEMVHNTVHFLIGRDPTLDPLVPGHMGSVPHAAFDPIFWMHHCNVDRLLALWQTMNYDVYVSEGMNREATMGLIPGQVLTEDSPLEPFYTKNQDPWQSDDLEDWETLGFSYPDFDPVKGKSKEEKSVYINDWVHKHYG

Row | Structure (SMILES) | α-helix % of tyrosinase [%]
13 | C=CCc1ccc(OC(=O)COC(=O)c2cccc(O)c2)c(OC)c1 [4a, 2-[2-methoxy-4-(prop-2-en-1-yl)phenoxy]-2-oxoethyl 3-hydroxybenzoate] | 17

same assay, conditions: tyrosinase + 10 min plasma-treated compound, 0.1 mM; enzyme alone 33

Row | Structure (SMILES) | β-sheet % of tyrosinase [%]
14 | C=CCc1ccc(OC(=O)COC(=O)c2cccc(O)c2)c(OC)c1 [4a, 2-[2-methoxy-4-(prop-2-en-1-yl)phenoxy]-2-oxoethyl 3-hydroxybenzoate] | 31

same assay, conditions: tyrosinase + as-synthesized compound (0 min plasma), 0.1 mM; enzyme alone 7

Row | Structure (SMILES) | Turn % of tyrosinase [%]
15 | C=CCc1ccc(OC(=O)COC(=O)c2ccc(O)cc2O)c(OC)c1 [4c, 2-[2-methoxy-4-(prop-2-en-1-yl)phenoxy]-2-oxoethyl 2,4-dihydroxybenzoate] | 4
16 | C=CCc1ccc(OC(=O)COC(=O)c2cccc(O)c2)c(OC)c1 [4a, 2-[2-methoxy-4-(prop-2-en-1-yl)phenoxy]-2-oxoethyl 3-hydroxybenzoate] | 5

same assay, conditions: tyrosinase + as-synthesized compound (0 min plasma), 0.1 mM; enzyme alone 16

Row | Structure (SMILES) | α-helix % of tyrosinase [%]
17 | C=CCc1ccc(OC(=O)COC(=O)c2ccc(O)cc2O)c(OC)c1 [4c, 2-[2-methoxy-4-(prop-2-en-1-yl)phenoxy]-2-oxoethyl 2,4-dihydroxybenzoate] | 16
18 | C=CCc1ccc(OC(=O)COC(=O)c2cccc(O)c2)c(OC)c1 [4a, 2-[2-methoxy-4-(prop-2-en-1-yl)phenoxy]-2-oxoethyl 3-hydroxybenzoate] | 15

same assay, conditions: tyrosinase + as-synthesized compound (0 min plasma), 0.1 mM; enzyme alone 33

Row | Structure (SMILES) | β-sheet % of tyrosinase [%]
19 | C=CCc1ccc(OC(=O)COC(=O)c2ccc(O)cc2O)c(OC)c1 [4c, 2-[2-methoxy-4-(prop-2-en-1-yl)phenoxy]-2-oxoethyl 2,4-dihydroxybenzoate] | 35
20 | C=CCc1ccc(OC(=O)COC(=O)c2cccc(O)c2)c(OC)c1 [4a, 2-[2-methoxy-4-(prop-2-en-1-yl)phenoxy]-2-oxoethyl 3-hydroxybenzoate] | 35

same assay, conditions: tyrosinase + as-synthesized compound (0 min plasma), 0.1 mM; enzyme alone 44

Row | Structure (SMILES) | Random coil % of tyrosinase [%]
21 | C=CCc1ccc(OC(=O)COC(=O)c2ccc(O)cc2O)c(OC)c1 [4c, 2-[2-methoxy-4-(prop-2-en-1-yl)phenoxy]-2-oxoethyl 2,4-dihydroxybenzoate] | 45
22 | C=CCc1ccc(OC(=O)COC(=O)c2cccc(O)c2)c(OC)c1 [4a, 2-[2-methoxy-4-(prop-2-en-1-yl)phenoxy]-2-oxoethyl 3-hydroxybenzoate] | 45

Reference: publication PMC4773869, “Influence of plasma-activated compounds on melanogenesis and tyrosinase activity” (Scientific Reports, 2016)
